Experimental data reported in patent US20210299150A1, “AP39 IMPACT ON MITOCHONDRIA, METABOLISM, GENE TRANSCRIPTION REGULATION, CARDIOTOXICITY PROTECTION AND CANCER TREATMENT” (priority 2020, published 2021).
Blank lines part the entries; values can stand above or below the molecule they belong to.

What was measured:
[1] = tested on: SK-N-BE(2) neuroblastoma cell line; assay: Cell viability (images, MTT) of SK-N-BE(2) neuroblastoma cell line; type: cell-based, human
Method: (§1) Methods for cell viability: Cells were plated in 96 wells/6 wells cell culture plates. After 24 hrs of plating, the treatments (added in the growth medium) were conducted. The following assays were performed after 24 hrs of the treatments (day 2). (FIGS. 15A, 17-20, 24-27)
(§2) MTT assay methods. For the MTT assay, […] of 5 mg/ml MTT-tetrazolium salts in PBS was added to each well containing the growth medium. After 3 hours of incubation, the medium was removed and the formazan crystals were dissolved by adding DMSO. The absorption of the formazan solution was measured using a spectrophotometer at a wavelength of 570 nm. FIGS. 15B, 21-22.
The SK-N-BE(2) neuroblastoma cell line was exposed to control, AP39 (AP) at 40 or 60 μM, Doxorubicin at 2.5 or 20 μM, thiolactate at 10 mM, AP39 and Doxorubicin, AP39 and thiolactate, or Doxorubicin and Thiolactate. […] FIGS. 17, 21, 24-25.

H9C2 cells [2] = assay: Mitochondrial ROS, MitoSox Red, H9C2; type: cell-based, Rat; conditions: H9C2, Dox alone
Method: AP39 treatment also ameliorated Dox toxicity in a model of Rat cardiomyoblast cell line, H9C2. […] There was a narrow window of protection, as 30 μM and 50 μm doses were not as strong as the 40 μM dose (FIGS. 5A and B) in conferring protection. […] Note that Dox caused an apoptotic phenotype in correlation with ROS levels (FIG. 5F, Dox lane). This in vitro AP39 protection is modest when compared to the in vivo scenario. This difference may be due to rapid clearance of toxic metabolites (for instance, higher lactate production, FIG. 10D) and better oxygen supply (AP39 stimulated OCR, FIG. 7C) in vivo and lack of such sophistication in vitro.

H9C2 cells [3] = assay: Mitochondrial H2S levels (AzMAC) and morphology (mitotracker Red) in H9C2 cells; type: cell-based, Rat; conditions: H9C2, single agent vs control
Excerpt: Note that white arrow heads and yellow arrows compare and contrast no-H2S: fusion and H2S-presence: fission scenarios in the same image AP39 treatment lane.
Mitochondrial fission was correlated with H2S levels. To investigate the impact of Dox on mitochondrial biogenesis and mitochondrial H2S levels, H9C2 cells were used in combination with H2S sensitive dye AzMAC and mitotracker Red dye as reported previously^8. […] Further, H2S levels (yellow arrows) highly correlated with a dotted appearance of mitochondria, implying that H2S causes mitochondrial fission, which is a prerequisite for eliminating damaged mitochondria^49.

[4] = cited from earlier work
hiPSC-CMs = assay: DIC in hiPSC-CMs (Annexin V, MitoSox Red); type: cell-based, human
[5] = 13C-glucose isotope tracing and GC-MS metabolite quantification; type: cell-based
Method: Stable isotope (13C glucose) tracer studies. Heatmap.
To this end, 13C-glucose flux/isotope tracing and quantified metabolites through GC-MS were examined at 16 hrs and 24 hrs after the treatments. Glucose, glutamine and lactate were also measured in supernatants at these time points. […] With the exception of glycolytic metabolites, the remaining metabolic pathways (poor labeling) were non-operational after Dox treatment (FIG. 10A).
When considered AP39-mediated activation of AMPK, H2S is selectively halting energy consuming anabolic pathways, such as protein synthesis (also, lipid, AMPK inhibits […], a rate limiting lipid synthesizing enzyme, FIGS. 7A and B), as observed before^41, thus leading to accumulation of amino acids and is enhancing TCA cycle through AMPK activation. The net result is better energy management with AP39/H2S treatment.

[6] = tested on: Myc/Max-regulated transcripts; assay: RNAseq analysis in H9C2 cell line; type: cell-based, Rat; conditions: H9C2, Dox alone
Method: The coverage among groups are indicated.
Next, to interrogate mechanisms of AP39 protection against DIC, RNAseq analysis was performed. There was sufficient coverage of the whole transcriptome among the groups (FIG. 8A).

[7] = tested on: SK-N-BE(2) and SK-N-BE(1) cell lines; conditions: previous study; cited from earlier work
[8] = tested on: 786-O cells renal cancer cells; assay: Cell viability of 786-O renal cancer cells; type: cell-based
Method: as §1, §2
786-O cells renal cancer cells were exposed to control, AP39 (AP) at 40 or 60 μM, Doxorubicin at 2.5 or 20 μM, thiolactate at 10 mM, AP39 and Doxorubicin, AP39 and thiolactate, or Doxorubicin and Thiolactate. […] FIGS. 18 and 21.

MCF7 breast cancer cells = assay: Cell viability (MTT, crystal violet) of MCF7 breast cancer cells; type: cell-based
Method: as §1, §2
Crystal Violet (CV) assay. For the CV Staining assay, cells were stained with 0.5% crystal violet in 30% ethanol for 10 minutes at room temperature after removal of the medium. The cells were lysed in a 1% SDS (sodium dodecyl sulfate) solution. The absorbance of the solution was measured using a spectrophotometer at a wavelength of 595 nm. FIG. 27.
MCF7 breast cancer cells were exposed to control, AP39 (AP) at 40 or 60 μM, Doxorubicin at 2.5 or 20 μM, thiolactate at 10 mM, AP39 and Doxorubicin, AP39 and thiolactate, or Doxorubicin and Thiolactate. […] FIGS. 26-27.

A549 lung cancer cells = assay: Cell viability of A549 lung cancer cells; type: cell-based
Method: as §1, §2
A549 lung cancer cells were exposed to control, AP39 (AP) at 40 or 60 μM, Doxorubicin at 2.5 or 20 μM, thiolactate at 10 mM, AP39 and Doxorubicin, AP39 and thiolactate, or Doxorubicin and Thiolactate. […] FIGS. 19 and 21.

H1299 lung cancer cells = assay: Cell viability of H1299 lung cancer cells; type: cell-based
Method: as §1, §2
H1299 lung cancer cells were exposed to control, AP39 (AP) at 40 or 60 μM, Doxorubicin at 2.5 or 20 μM, thiolactate at 10 mM, AP39 and Doxorubicin, AP39 and thiolactate, or Doxorubicin and Thiolactate. […] FIGS. 20-22.

[9] = AP39 40 or 60 μM, thiolactate 10 mM, 24 hrs
[10] = combination with Doxorubicin 2.5 μM

mitochondrial ROS levels (H9C2 cells [2]): elevating damaging ROS levels
DIC in hiPSC-CMs at lower dose of Dox (hiPSC-CMs; 2.5 μM Dox, donor, data not showed): exhibited resistance to DIC
SMILES: COc1cccc2c1C(=O)c1c(O)c3c(c(O)c1C2=O)C[C@@](O)(C(=O)CO)C[C@@H]3O[C@H]1C[C@H](N)[C@H](O)[C@H](C)O1 [Dox, Doxorubicin]
effective Dox dose ([1]; AP39 used along with Dox): 2.5 µM
IC70 of Dox ([1]; Dox alone, 24 hrs): 20 µM
mitochondrial H2S levels (AzMAC) (H9C2 cells [3]): significantly reduced mitochondrial H2S production
mitochondrial morphology (fission / fusion) (H9C2 cells [3]): mitochondrial fusion
late cardiac dysfunction incidence ([4]; after Dox treatment): 16%
sub-clinical disease rate ([4]; after Dox treatment): over 50%
Cumulative left ventricular systolic dysfunction (LVSD) incidence rate ([4]; within 18 months of Dox treatment): 12%
cell death in hiPSC-CMs (hiPSC-CMs; 7.5 μM Dox, 48 hrs): significant cell death
Serine and glycine 13C labeling ([5]; 16 hrs and 24 hrs): highly labeled
abundance of most metabolites (GC-MS) ([5]; 24 hrs of Dox treatment): present in abundant amounts
Myc transcription [6]: attenuated Myc transcription
IC90 for SK-N-BE(2) relative to IC90 for SK-N-BE(1) [7]: 9230 times

SMILES: CC(S)C(=O)O (stereo not drawn) [thiolactate, Thiolactate]
cell killing, agent alone [1, 9]: able to kill SK-N-BE(2) cells
potency of low doses of Doxorubicin [1, 10]: able to increase the potency of low doses of Doxorubicin
cell killing, agent alone [8, 9]: able to kill renal cancer cells
potency of low doses of Doxorubicin [8, 10]: able to increase the potency of low doses of Doxorubicin
cell killing, agent alone (MCF7 breast cancer cells; [9]): able to kill breast cancer cells
potency of low doses of Doxorubicin (MCF7 breast cancer cells; [10]): able to increase the potency of low doses of Doxorubicin
cell killing, agent alone (A549 lung cancer cells; [9]): able to kill lung cancer cells
potency of low doses of Doxorubicin (A549 lung cancer cells; [10]): able to increase the potency of low doses of Doxorubicin
cell killing, agent alone (H1299 lung cancer cells; [9]): able to kill lung cancer cells
potency of low doses of Doxorubicin (H1299 lung cancer cells; [10]): able to increase the potency of low doses of Doxorubicin
